Values quoted from earlier work in patent US7265248B1, “Compositions and methods for the treatment of malaria” (Technology Innovations, LLC, priority 2005, dated 2007).
Where two headings read alike, the source gives them in different places. One block for each compound: values may come before it.

Columns and labels:
alpha/beta II = biological target: T1, alpha/beta II (Bos taurus, UniProt Q6B856); settings: compared with unfractionated tubulin
T1 construct: microtubules were prepared from bovine cerebra by the method of Fellous et al and tubulin was purified therefrom by phosphocellulose chromatography; from tissue; host or cells: bovine cerebra (brain)

alpha/beta III = biological target: T2, alpha/beta III (Bos taurus, UniProt Q2T9S0); settings: compared with unfractionated tubulin
T2 construct: microtubules were prepared from bovine cerebra by the method of Fellous et al and tubulin was purified therefrom by phosphocellulose chromatography; from tissue; host or cells: bovine cerebra (brain)

alpha/beta IV = biological target: T3, alpha/beta IV (Bos taurus, UniProt Q3ZBU7); settings: compared with unfractionated tubulin, alpha/beta II, alpha/beta III
T3 construct: microtubules were prepared from bovine cerebra by the method of Fellous et al and tubulin was purified therefrom by phosphocellulose chromatography; from tissue; host or cells: bovine cerebra (brain)

[1] = not given; remark: listed apart in the source
[2] = in vivo
alpha/beta III dimer = alpha/beta III dimer (Bos taurus, UniProt Q2T9S0); settings: compared with alpha/beta II and alpha/beta IV dimers
Sequence of alpha/beta III dimer (Q2T9S0 whole entry): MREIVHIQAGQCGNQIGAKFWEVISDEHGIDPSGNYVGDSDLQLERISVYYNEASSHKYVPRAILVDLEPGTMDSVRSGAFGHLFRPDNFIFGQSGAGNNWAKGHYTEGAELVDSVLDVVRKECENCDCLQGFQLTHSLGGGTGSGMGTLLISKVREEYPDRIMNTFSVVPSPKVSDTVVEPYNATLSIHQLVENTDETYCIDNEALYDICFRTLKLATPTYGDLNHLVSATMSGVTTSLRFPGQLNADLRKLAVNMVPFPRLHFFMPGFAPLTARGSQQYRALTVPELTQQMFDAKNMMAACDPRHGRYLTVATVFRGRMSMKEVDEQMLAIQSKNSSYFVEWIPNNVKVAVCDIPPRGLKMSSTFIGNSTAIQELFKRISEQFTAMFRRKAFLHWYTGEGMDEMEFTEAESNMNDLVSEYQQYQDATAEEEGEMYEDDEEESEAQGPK
Sequence of alpha/beta III dimer (P81947 whole entry, further chain): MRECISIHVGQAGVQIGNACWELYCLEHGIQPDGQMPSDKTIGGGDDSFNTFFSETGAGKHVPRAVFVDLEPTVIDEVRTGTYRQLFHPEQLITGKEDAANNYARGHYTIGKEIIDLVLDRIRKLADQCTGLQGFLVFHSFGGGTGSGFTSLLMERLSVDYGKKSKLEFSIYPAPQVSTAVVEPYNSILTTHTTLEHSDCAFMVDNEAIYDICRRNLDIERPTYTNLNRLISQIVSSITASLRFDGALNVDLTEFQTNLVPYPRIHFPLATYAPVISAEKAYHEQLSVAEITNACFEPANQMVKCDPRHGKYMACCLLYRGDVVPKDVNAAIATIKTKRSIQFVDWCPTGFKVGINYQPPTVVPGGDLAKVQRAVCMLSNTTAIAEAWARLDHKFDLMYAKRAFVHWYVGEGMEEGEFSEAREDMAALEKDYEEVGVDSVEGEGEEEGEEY

T3 sequence (P81947 whole entry): as the sequence (P81947 whole entry, further chain) above
T3 sequence (Q3ZBU7 whole entry): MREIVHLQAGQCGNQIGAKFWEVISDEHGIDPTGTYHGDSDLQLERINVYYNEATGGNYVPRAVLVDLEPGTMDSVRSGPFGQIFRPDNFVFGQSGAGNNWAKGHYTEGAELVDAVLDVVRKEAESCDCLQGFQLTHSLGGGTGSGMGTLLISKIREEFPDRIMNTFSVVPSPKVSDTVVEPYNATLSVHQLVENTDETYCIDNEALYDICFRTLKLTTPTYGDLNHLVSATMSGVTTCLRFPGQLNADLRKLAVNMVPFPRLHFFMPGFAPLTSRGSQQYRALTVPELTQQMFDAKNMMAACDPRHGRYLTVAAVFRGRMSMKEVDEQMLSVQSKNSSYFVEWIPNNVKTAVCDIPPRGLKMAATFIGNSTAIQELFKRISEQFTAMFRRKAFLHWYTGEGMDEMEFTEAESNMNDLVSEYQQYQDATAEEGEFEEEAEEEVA
T1 sequence (P81947 whole entry): as the sequence (P81947 whole entry, further chain) above
T1 sequence (Q6B856 whole entry): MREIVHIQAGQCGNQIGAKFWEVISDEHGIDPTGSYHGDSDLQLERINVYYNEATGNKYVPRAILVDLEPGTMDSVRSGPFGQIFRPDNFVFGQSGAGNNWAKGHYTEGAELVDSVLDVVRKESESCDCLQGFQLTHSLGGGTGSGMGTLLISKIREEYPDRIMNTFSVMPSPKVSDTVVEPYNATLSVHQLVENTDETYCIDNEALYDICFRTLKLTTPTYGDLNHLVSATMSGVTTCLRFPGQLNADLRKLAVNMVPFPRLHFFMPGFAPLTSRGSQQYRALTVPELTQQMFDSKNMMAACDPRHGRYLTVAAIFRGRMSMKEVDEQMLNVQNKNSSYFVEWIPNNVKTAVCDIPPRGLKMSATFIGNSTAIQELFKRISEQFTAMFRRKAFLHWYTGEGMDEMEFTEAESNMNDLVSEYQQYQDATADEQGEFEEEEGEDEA
T2 sequence (Q2T9S0 whole entry): as the sequence (Q2T9S0 whole entry) above
T2 sequence (P81947 whole entry, further chain): as the sequence (P81947 whole entry, further chain) above

volume of distribution (in words): several times the volume of body water
protein binding [1]: ~98%
SMILES: OC(c1cc(C(F)(F)F)nc2c(C(F)(F)F)cccc12)C1CCCCN1 (stereo not shown) [mefloquine]

half life (in vivo): 80 to 95 h
SMILES: CCc1nc(N)nc(N)c1-c1ccc(Cl)cc1 [pyrimethamine]
side effects [2]: blood dyscrasias

The next lines start with the compound.

SMILES: COc1cc(OC)c(Cl)c(-n2c(-c3ccccc3)cc(=O)c(C)c2-c2ccc(F)cc2)c1 [IKP-104]
apparent dissociation constant for the high-affinity site (Kd1) (alpha/beta II): lower than that of unfractionated tubulin
apparent dissociation constant for the high-affinity site (Kd1) (alpha/beta III): lower than that of unfractionated tubulin
apparent dissociation constant for the high-affinity site (Kd1) (alpha/beta IV): greater than those of unfractionated tubulin, alpha/beta II, or alpha/beta III

SMILES: O=C1C(O)=C([C@H]2CC[C@H](c3ccc(Cl)cc3)CC2)C(=O)c2ccccc21 [atovaquone]
half life (in vivo): 36 to 72 h
pharmacokinetic profile (in words): double peaking
protein binding [1]: 99%
side effects [2]: rash, vomiting, diarrhea, fever and headache

SMILES: CCN(CC)CCCC(C)Nc1ccnc2cc(Cl)ccc12 (stereo not shown) [chloroquine]
volume of distribution (in vivo): over 100 l/kg
half life (in words): days to weeks
side effects [2]: cardiovascular and CNS effects

SMILES: CC(=O)O[C@H]1C(=O)[C@@]2(C)[C@H]([C@H](OC(=O)c3ccccc3)[C@]3(O)C[C@H](OC(=O)[C@H](O)[C@@H](NC(=O)c4ccccc4)c4ccccc4)C(C)=C1C3(C)C)[C@]1(OC(C)=O)CO[C@@H]1C[C@@H]2O [paclitaxel]
interaction with ligand (alpha/beta III dimer): much less strongly

SMILES: COc1cc(NC(C)CCCN)c2ncccc2c1 (stereo not shown) [primaquine]
side effects [2]: blood dyscrasias
